These results are taken from ChEMBL document CHEMBL1156268, “Michael acceptor based antiplasmodial and antitrypanosomal cysteine protease inhibitors with unusual amino acids” (J Med Chem, 2010).

pIC50, pKi: −log10 of the molar value. Calls of active or inactive are those of the source. The calls are words filed in the database; no cut-off is given here.

Data set [1] in a line: Inhibition of Plasmodium falciparum recombinant falcipain-2 using Cbz-Leu-Arg-AMC as substrate by standard fluorescence assay.
The target in data set [2] is Rhodesain (Trypanosoma brucei rhodesiense) (UniProt Q95PM0). In words: (§1) Inhibition of Trypanosoma brucei rhodesiense recombinant rhodesain by standard fluorescence assay. The note with it: TDE = time-dependent effect.
For data set [3], the target named is T1, Rhodesain (Trypanosoma brucei rhodesiense, UniProt Q95PM0). The description is as §1.
Data set [4] deals with Plasmodium falciparum. In words: Antiplasmodial activity against Plasmodium falciparum FCBR by flow cytometry. In kind it is functional, organism-based. As to conditions: FCBR/Columbia.
Data set [5] relates to Trypanosoma brucei brucei. Briefly: Antitrypanosomal activity against Trypanosoma brucei brucei. In kind it is functional, organism-based.
Data set [6] in a line: Cytotoxicity against mouse J774.1 cells. In kind it is cell-based.
Data set [7] can be described thus: Selectivity index, ratio of IC50 for mouse J774.1 cells to IC50 for Trypanosoma brucei brucei. In kind it is toxicity. As to conditions: J774.1 cells versus Trypanosoma brucei brucei, read-out: Ratio IC50.
The nature of data set [8]: Inhibition of Plasmodium falciparum recombinant falcipain-3 by standard fluorescence assay.
For data set [9], the system named is Plasmodium falciparum. In words: Antiplasmodial activity against Plasmodium falciparum W2 by flow cytometry. In kind it is functional, organism-based. (In general: Flow cytometry measures light scatter and fluorescence of single cells or particles in a stream.)
For data set [10], the system named is Plasmodium falciparum. Briefly: Inhibition of Plasmodium falciparum recombinant falcipain-3 at 100 uM by standard fluorescence assay.
For data set [11], the target named is T1, Rhodesain. Briefly: Inhibition of Trypanosoma brucei rhodesiense recombinant rhodesain using high concentration of enzyme by standard fluorescence assay.
Data set [12] deals with T1, Rhodesain. In words: Inhibition of Trypanosoma brucei rhodesiense recombinant rhodesain using high concentration of enzyme by standard fluorescence assay in presence of detergent.
The target in data set [13] is T1, Rhodesain. Briefly: Inhibition of Trypanosoma brucei rhodesiense recombinant rhodesain using low concentration of enzyme by standard fluorescence assay.
In data set [14] the target is T1, Rhodesain. In words: Inhibition of Trypanosoma brucei rhodesiense recombinant rhodesain using low concentration of enzyme by standard fluorescence assay in presence of detergent.
The subject of data set [15] is Plasmodium falciparum. In words: Inhibition of Plasmodium falciparum recombinant falcipain-2 at 100 uM by standard fluorescence assay.
Data set [16] concerns the target Rhodesain (Trypanosoma brucei rhodesiense) (UniProt Q95PM0). Briefly: Inhibition of Trypanosoma brucei rhodesiense recombinant rhodesain at 100 uM by standard fluorescence assay.
Data set [17] concerns Plasmodium falciparum. In words: Antiplasmodial activity against Plasmodium falciparum W2 at 10 uM by flow cytometry. In kind it is functional.
The subject of data set [18] is Plasmodium falciparum. In words: Antiplasmodial activity against Plasmodium falciparum W2 at 100 uM by flow cytometry. In kind it is functional.
For data set [19], the system named is Trypanosoma brucei brucei. Briefly: Antitrypanosomal activity against Trypanosoma brucei brucei at 100 uM. In kind it is functional, organism-based.
Data set [20] can be described thus: Inhibition of Plasmodium falciparum recombinant falcipain-2 using Cbz-Phe-Arg-AMC as substrate by standard fluorescence assay.
The target of data set [21] is T1, Rhodesain. In words: Inhibition of Trypanosoma brucei rhodesiense recombinant rhodesain by standard fluorescence assay in presence of DTT.

By pKi is commonly meant the negative decadic logarithm of the Ki, by convention in mol/L. As usually defined, the pIC50 is the negative decadic logarithm of the IC50, by convention in mol/L. Read a low pIC50 as a high IC50. What is called inhibition is the change of the read-out against control, counted positive when it falls.

T1 sequence (Q95PM0 whole entry): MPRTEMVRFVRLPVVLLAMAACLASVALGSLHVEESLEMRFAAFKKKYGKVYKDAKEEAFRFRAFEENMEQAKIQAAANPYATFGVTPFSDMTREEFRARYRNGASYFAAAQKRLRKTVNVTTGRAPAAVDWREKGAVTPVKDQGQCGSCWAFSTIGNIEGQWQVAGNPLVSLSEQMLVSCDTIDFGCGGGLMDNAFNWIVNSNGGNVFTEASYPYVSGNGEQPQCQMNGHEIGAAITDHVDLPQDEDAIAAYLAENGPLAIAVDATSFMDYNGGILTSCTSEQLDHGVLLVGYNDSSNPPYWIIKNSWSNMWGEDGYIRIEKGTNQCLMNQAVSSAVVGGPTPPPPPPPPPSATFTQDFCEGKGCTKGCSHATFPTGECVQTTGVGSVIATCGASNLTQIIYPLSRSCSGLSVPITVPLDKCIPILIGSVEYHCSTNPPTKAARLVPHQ
Rhodesain (Trypanosoma brucei rhodesiense), sequence (Q95PM0 1-450): as the sequence (Q95PM0 whole entry) above

As to `CCOC(=O)/C=C/[C@@H](CCC(=O)NC(c1ccccc1)(c1ccccc1)c1ccccc1)NC(=O)[C@@H](NC(=O)OC(C)(C)C)c1ccccc1`, the pKi was 6.31 in data set [1] and 6.85 in data set [3]. Moreover, the “Time-dependent inhibition (qualitative)” value in data set [2] is “tde”. Besides, the pIC50 was 6.05 in data set [4], 5.46 in data set [5] and 4.22 in data set [6]. The selectivity ratio in data set [7] was found to be 17.
In the case of `CC(C)C[C@H](NC(=O)[C@H]1O[C@@H]1C(=O)O)C(=O)NCCCCN=C(N)N` [E-64], the results for the negative logarithm of the Ki (pKi) in data set [1] and in data set [8] were 7.60 and 6.66, respectively. Moreover, the pIC50 in data set [4] was 5.49.
Take `O=C(/C=C\C(=O)N[C@@H](Cc1ccccc1)C(=O)OCc1ccccc1)N[C@@H](Cc1ccccc1)C(=O)O`: the results for the pKi in [1] and in [3] were 4.99 and 6.82, respectively. Also, the pIC50 is 4.00 in data set [9], 5.54 in data set [5] and 4.51 in [6]. The inhibition result in [10] was “inactive”. Moreover, the selectivity ratio in data set [7] is 10.
Take `CCOC(=O)/C=C/C(=O)N[C@@H](CCC(=O)NC(c1ccccc1)(c1ccccc1)c1ccccc1)C(=O)OC`: the pKi was 5.48 in [1], 4.83 in data set [8] and 5.85 in data set [3]. For the same compound, the pIC50 in data set [9] was 5.33; in [5], 4.51.
Regarding `C[C@H](NC(=O)[C@H](Cc1ccccc1)NC(=O)/C=C\C(=O)N[C@@H](Cc1ccccc1)C(=O)OCc1ccccc1)C(=O)O`, the pKi was 5.42 in data set [1], 4.37 in [8] and 5.85 in [3]. Also, the pIC50 in [9] is 5.10; in data set [5] it was 5.66; in data set [6], 4.49. For the same compound, in [7], the selectivity ratio turned out to be 10.
As for `CCOC(=O)/C=C/[C@H](CCC(=O)NC(c1ccccc1)(c1ccccc1)c1ccccc1)NC(=O)[C@@H](NC(=O)OC(C)(C)C)c1ccccc1`, the pKi in data set [1] was 6.35; in data set [8] it was 5.85; in [3], 6.33; in data set [11] it was 6.19; in [12] it was 6.40; in data set [13] it was 6.19. The pKi in data set [14] is 6.52. Also, in data set [2], the “Time-dependent inhibition (qualitative)” value is “tde”. Besides, the results for the pIC50 in data set [9] and in [5] were 5.41 and 4.51, respectively.
On to `CCOC(=O)/C=C\C(=O)N[C@@H](CCC(=O)NC(c1ccccc1)(c1ccccc1)c1ccccc1)C(=O)OC`, for which the pIC50 in data set [5] is 4.59. Besides, the inhibition entry in [15] and in [16] was “inactive” throughout. The compound further returned an inhibition at 10 µM in data set [17] of 30%.
Turning to `CCOC(=O)/C=C/C(=O)O.CCOC(=O)/C=C/C(=O)OC[C@H](CC(N)=O)NC(=O)[C@@H](NC(=O)OC(C)(C)C)c1ccccc1`, the pIC50 in data set [4] was 4.66; in [5] it was 4.48. Moreover, the inhibition in data set [15] was 45%; in data set [16] it was 51%.
As for `O=C(/C=C/C(=O)N[C@@H](Cc1ccccc1)C(=O)OCc1ccccc1)N[C@@H](Cc1ccccc1)C(=O)OCc1ccccc1`, the figures for the pKi in data set [1], in data set [8] and in data set [3] were 6.01, 5.55 and 6.47, respectively. In data set [2], the “Time-dependent inhibition (qualitative)” value is “tde”. Also, the inhibition result in data set [18] and in data set [19] was “inactive” throughout.
For the compound `CCOC(=O)/C=C/CN[C@@H](CCC(N)=O)C(=O)N[C@H](C(=O)N[C@H](C(=O)N[C@@H](C)C(=O)OCc1ccccc1)C(C)C)C1CCCCC1`, the pKi is 5.17 in data set [1], 4.55 in data set [8], 5.24 in [3] and 5.27 in [20]. In addition, in data set [9], the pIC50 was 4.45.
As for `CCOC(=O)/C=C/C(=O)N[C@@H](Cc1ccccc1)C(=O)OCc1ccccc1`, the pKi was 5.33 in data set [1], 4.18 in data set [8] and 5.12 in [3]. Moreover, the pIC50 in [5] was 6.60; in data set [6] it was 5.46. For the same compound, the inhibition result in data set [18] was “inactive”. Further, the selectivity ratio in [7] turned out to be 10.
As for `CCOC(=O)/C=C/[C@H](CCC(=O)NC(c1ccccc1)(c1ccccc1)c1ccccc1)NC(=O)OC(C)(C)C`, the pKi in data set [1] is 5.74; in data set [8] it was 5.09; in data set [3], 5.37; in data set [21], 5.44. Further, in [2], the “Time-dependent inhibition (qualitative)” value is “tde”. For the same compound, the pIC50 in [9] is 5.40; in [5], 5.55; in data set [6], less than 4.00. For the same compound, the selectivity ratio in data set [7] is greater than 36.
